Columns and labels:
Format in all cases: in vivo
[1] = system: Abutilon theophrasti (ABUTH); assay: Herbicidal post-emergence action (B), 1280 g/ha; details: rated visually after about 3 weeks vs untreated controls
Procedure, shortened: (§1)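 Compounds formulated as wettable powder or emulsion concentrate, with 0.5% additive, sprayed at 600 l/ha onto one-leaf-stage plants grown in sandy loam for 2 to 3 weeks. Damage rated visually against untreated plants roughly 3 weeks later; 0% = like control, 100% = plants died.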

[2] = system: Alopecurus myosuroides (ALOMY); assay: Herbicidal post-emergence action (B), 1280 g/ha; details: rated visually after about 3 weeks vs untreated controls
Procedure, shortened: as §1

[3] = system: Amaranthus retroflexus (AMARE); assay: Herbicidal post-emergence action (B), 1280 g/ha; details: rated visually after about 3 weeks vs untreated controls
Procedure, shortened: as §1

[4] = system: Digitaria sanguinalis (DIGSA); assay: Herbicidal post-emergence action (B), 1280 g/ha; details: rated visually after about 3 weeks vs untreated controls
Procedure, shortened: as §1

[5] = system: Echinochloa crus-galli (ECHCG); assay: Herbicidal post-emergence action (B), 1280 g/ha; details: rated visually after about 3 weeks vs untreated controls
Procedure, shortened: as §1

[6] = system: Kochia scoparia (KCHSC; Bassia scoparia); assay: Herbicidal post-emergence action (B), 1280 g/ha
Procedure, shortened: as §1

[7] = system: Lolium rigidum (LOLRI); assay: Herbicidal post-emergence action (B), 1280 g/ha; details: one-leaf stage, rated after about 3 weeks vs untreated controls, 100% activity = the plants have died, 0% = like control plants
Procedure, shortened: as §1

[8] = system: Poa annua (POAAN); assay: Herbicidal post-emergence action (B), 1280 g/ha; details: rated visually after about 3 weeks vs untreated controls
Procedure, shortened: as §1

[9] = system: Setaria viridis (SETVI); assay: Herbicidal post-emergence action (B), 1280 g/ha; details: rated visually after about 3 weeks vs untreated controls
Procedure, shortened: as §1

[10] = system: Stellaria media (STEME); assay: Herbicidal post-emergence action (B), 1280 g/ha
Procedure, shortened: as §1

[11] = system: Veronica persica (VERPE); assay: Herbicidal post-emergence action (B), 1280 g/ha
Procedure, shortened: as §1

[12] = system: Alopecurus myosuroides (ALOMY); assay: Herbicidal pre-emergence action (C), 320 g/ha; details: ca. 3 weeks
Procedure, shortened: (§2)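 Seeds sown in sandy loam; WP or EC formulations sprayed on covering soil pre-emergence at 320 g/ha in 600 l water/ha with 0.5% additive. Greenhouse culture; damage scored visually after ca. 3 weeks versus untreated controls (0% = as control, 100% = plants dead).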

[13] = system: Amaranthus retroflexus (AMARE); assay: Herbicidal pre-emergence action (C), 320 g/ha; details: ca. 3 weeks
Procedure, shortened: as §2

[14] = system: Echinochloa crus-galli (ECHCG); assay: Herbicidal pre-emergence action (C), 320 g/ha; details: ca. 3 weeks
Procedure, shortened: as §2

[15] = system: Lolium rigidum (LOLRI); assay: Herbicidal pre-emergence action (C), 320 g/ha; details: ca. 3 weeks
Procedure, shortened: as §2

[16] = system: Setaria viridis (SETVI); assay: Herbicidal pre-emergence action (C), 320 g/ha; details: ca. 3 weeks
Procedure, shortened: as §2

[17] = system: Veronica persica (VERPE); assay: Herbicidal pre-emergence action (C), 320 g/ha; details: ca. 3 weeks
Procedure, shortened: as §2

[18] = system: Alopecurus myosuroides (ALOMY); assay: Herbicidal post-emergence action (D), 320 g/ha; details: ca. 3 weeks
Procedure, shortened: (§3)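 Weeds sown in sandy loam and greenhouse-grown for 2 to 3 weeks, then sprayed at single-leaf stage with WP or EC formulations in water plus 0.5% additive at 600 l water/ha. After ca. 3 weeks, injury scored visually versus untreated controls: 0% = as control, 100% = plants dead.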

[19] = system: Amaranthus retroflexus (AMARE); assay: Herbicidal post-emergence action (D), 320 g/ha; details: ca. 3 weeks
Procedure, shortened: as §3

[20] = system: Echinochloa crus-galli (ECHCG); assay: Herbicidal post-emergence action (D), 320 g/ha; details: ca. 3 weeks
Procedure, shortened: as §3

[21] = system: Polygonum convolvulus (POLCO); assay: Herbicidal post-emergence action (D), 320 g/ha; details: ca. 3 weeks
Procedure, shortened: as §3

[22] = system: Veronica persica (VERPE); assay: Herbicidal post-emergence action (D), 320 g/ha; details: ca. 3 weeks
Procedure, shortened: as §3

Compound | herbicidal activity ABUTH [1] [%] | herbicidal activity ALOMY [2] [%] | herbicidal activity AMARE [3] [%] | herbicidal activity DIGSA [4] [%] | herbicidal activity ECHCG [5] [%] | herbicidal effect KCHSC [6] [%] | LOLRI, activity rated visually (%) [7] [%] | herbicidal activity POAAN [8] [%] | herbicidal activity SETVI [9] [%] | herbicidal effect STEME [10] [%] | herbicidal effect VERPE [11] [%] | herbicidal effect ALOMY [12] [%] | herbicidal effect AMARE [13] [%] | herbicidal effect ECHCG [14] [%] | herbicidal effect LOLRI [15] [%] | herbicidal effect SETVI [16] [%] | herbicidal effect VERPE [17] [%] | herbicidal effect ALOMY [18] [%] | herbicidal effect AMARE [19] [%] | herbicidal effect ECHCG [20] [%] | further results
CCc1cc2scnc2nc1-c1ccccc1F [Example I-023] | 100 | 100 | 100 | 100 | 100 | 90 | 100 | 100 | 100 | 100 | 90 | 100 | 80 | 100 | 100 | 100 | 90 | 90 | 100 | 90 | herbicidal effect POLCO [21]: 90%; herbicidal effect VERPE [22]: 90%
Fc1ccccc1-c1nc2ncsc2cc1Cl [Example I-017] | 90 | 100 | 90 | 100 | 100 | 90 | 100 | 100 | 100 | 100 | 90 | 100 | 90 | 100 | 100 | 100 | 90 | 90 | 100 | 80 | herbicidal effect POLCO [21]: 90%; herbicidal effect VERPE [22]: 90%
Cc1cc2scnc2nc1-c1sccc1Cl [Example I-137] | 90 | 100 | 100 | 100 | 100 | 90 | 90 | 100 | 100 | 100 | 100 | 100 | 90 | 100 | 100 | 100 | 90 | 90 | 90 | 90 | herbicidal effect POLCO [21]: 80%; herbicidal effect VERPE [22]: 80%

— patent US20230151025A1, “SUBSTITUTED THIAZOLOPYRIDINES, SALTS THEREOF AND THEIR USE AS HERBICIDALLY ACTIVE SUBSTANCES” (Bayer Aktiengesellschaft, priority 2020, published 2023)
